For one test, the system named is JAK1 (IL-6). Description: PK derived JAK1 (IL-6) inhibition by dose regimen. From the text: (§1) It is believed that this efficacy/side-effect profile may be due to the QD dose achieving maximal JAK1 signaling (tied to efficacy) with low JAK2 inhibition at the trough, as JAK2 signaling is tied to hematopoiesis. This hypothesis is supported by the PK derived JAK1 (IL-6) and JAK2 (TPO) inhibition data for the compound of Formula at various doses (Table 7).

The test system of a further test is JAK2 (TPO). Description: PK derived JAK2 (TPO) inhibition by dose regimen.
Excerpt: as §1

For test [1], the system named is patients with plaque psoriasis. Description: Placebo controlled study in plaque psoriasis, 28 days (sPGA, PASI 50). Type of test: in vivo, human. On the procedure: A double-blind (sponsor unblinded), randomized, placebo controlled study was conducted in approximately 48 subjects treated for 28 days. Eligibility requirements included: active plaque psoriasis for at least 6 months at screening; body surface area (BSA) of plaque psoriasis of ≥5%; psoriasis area and severity index (PASI) score of ≥5; static physician's global assessment (sPGA) score of ≥3; inadequate response to topical therapies; innovative design allowing rapid progress between doses, with conservative safety assessment. […] Once the 4th subject (block of 3 active 1 PBO) completed 28 days administration without a Grade 3 or higher AE, the next group of 12 subjects initiated treatment with the next highest dose; while the first 4 subjects in this group are treated for 28 days, the 1st group is filled 60 subjects with moderate to severe psoriasis were randomized. […] A sequential method of recruitment was used, increasing from the lowest dose to the highest, each after the completion of 28 days for the first four subjects in the previous dose. The results at 28 days are show in Table 8 (PASI 50 is Psoriasis Area and Severity Index). […] The 5 mg tofacitinib dose is the approved dosage level for RA for safety reasons in the US.

Test [2] deals with T1, human JAK1 (a.a. 837-1142) (Homo sapiens, UniProt P23458).
T1 construct: human JAK1 (a.a. 837-1142); His tag (N); made in house; host or cells: insect cells (baculovirus)
T1 sequence (P23458 849-1154): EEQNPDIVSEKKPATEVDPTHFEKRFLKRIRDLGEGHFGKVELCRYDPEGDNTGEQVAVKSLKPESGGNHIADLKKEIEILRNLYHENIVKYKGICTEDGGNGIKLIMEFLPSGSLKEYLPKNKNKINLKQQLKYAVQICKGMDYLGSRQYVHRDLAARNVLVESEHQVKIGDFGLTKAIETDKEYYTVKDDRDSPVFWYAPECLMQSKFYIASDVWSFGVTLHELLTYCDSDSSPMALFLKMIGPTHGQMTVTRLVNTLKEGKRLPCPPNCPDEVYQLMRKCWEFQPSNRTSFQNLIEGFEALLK
The test is described as follows: In vitro JAK kinase assay (HTRF), JAK1. Type of test: biochemical. The following applies: measured at 1 mM ATP. The protocol: The compound of Formula I herein was tested for inhibitory activity of JAK targets according to the following in vitro assay described in Park et al., Analytical Biochemistry 1999, 269, 94-104. The catalytic domains of human JAK1 (a.a. 837-1142) and JAK2 (a.a. 828-1132) with an N-terminal His tag were expressed using baculovirus in insect cells and purified. The catalytic activity of JAK1 and JAK2 was assayed by measuring the phosphorylation of a biotinylated peptide. The phosphorylated peptide was detected by homogenous time resolved fluorescence (HTRF). IC50s of compounds were measured for each kinase in the 40 microL reactions that contain the enzyme, ATP and 500 nM peptide in 50 mM Tris (pH 7.8) buffer with 100 mM NaCl, 5 mM DTT, and 0.1 mg/mL (0.01%) BSA. For the 1 mM IC50 measurements, ATP concentration in the reactions was 1 mM. Reactions were carried out at room temperature for 1 hr and then stopped with 20 μL 45 mM EDTA, 300 nM SA-APC, 6 nM Eu-Py20 in assay buffer (Perkin Elmer, Boston, Mass.). Binding to the Europium labeled antibody took place for 40 minutes and HTRF signal was measured on a Fusion plate reader (Perkin Elmer, Boston, Mass.).
(In general: TR-FRET usually uses a lanthanide donor and a delayed reading to cut background.)

A further test concerns RA. The following applies: 5 mg BID; 3 months; cited from earlier work.
The next test has as its system psoriasis. Conditions: 5 mg; 12 weeks; cited from earlier work.

As usually defined, the pIC50 is −log10 of the IC50, conventionally taken in molar units. Low readings indicate a large IC50, high ones a small IC50.

pIC50: −log10 of the molar value.

Consider `N#CCC1(n2cc(-c3ncnc4[nH]ccc34)cn2)CN(C2CCN(C(=O)c3ccnc(C(F)(F)F)c3F)CC2)C1` [compound of Formula I, {1-{1-[3-fluoro-2-(trifluoromethyl)isonicotinoyl]piperidin-4-yl}-3-[4-(7H-pyrrolo[2,3-d]pyrimidin-4-yl)-1H-pyrazol-1-yl]azetidin-3-yl}acetonitrile], for which the “Average IL-6 inhibition” value in the test with JAK1 (IL-6) (100 mg BID) is reported as 44%; in the test on JAK1 (IL-6) (100 mg QD) it was 30%; in the test with JAK1 (IL-6) (200 mg BID) it was 64%; in the test with JAK1 (IL-6) (200 mg QD) it was 39%; with JAK1 (IL-6) (300 mg QD), 47%; with JAK1 (IL-6) (400 mg BID) it was 69%. In the test with JAK1 (IL-6) (600 mg QD), the “Average IL-6 inhibition” value is 61%. For the same compound, the “Trough IL-6 inhibition” value came out at 22% in the test on JAK1 (IL-6) (100 mg BID); 7% in the test on JAK1 (IL-6) (100 mg QD); 52% in the test on JAK1 (IL-6) (200 mg BID); 11% with JAK1 (IL-6) (200 mg QD); 16% in the test on JAK1 (IL-6) (300 mg QD); 56% in the test on JAK1 (IL-6) (400 mg BID). In addition, the “Trough IL-6 inhibition” value in the test with JAK1 (IL-6) (600 mg QD) is 31%. In addition, the “Average TPO inhibition” value in the test with JAK2 (TPO) (100 mg BID) turned out to be 11%; in the test on JAK2 (TPO) (100 mg QD) it was 7%; with JAK2 (TPO) (200 mg BID), 24%; with JAK2 (TPO) (200 mg QD) it was 11%; with JAK2 (TPO) (300 mg QD), 18%; in the test on JAK2 (TPO) (400 mg BID) it was 33%. Further, the “Average TPO inhibition” value with JAK2 (TPO) (600 mg QD) was determined as 36%. Further, the “Trough TPO inhibition” value with JAK2 (TPO) (100 mg BID) was 2%; in the test on JAK2 (TPO) (100 mg QD), under 1%; with JAK2 (TPO) (200 mg BID), 13%; in the test with JAK2 (TPO) (200 mg QD) it was under 1%; in the test with JAK2 (TPO) (300 mg QD), 1%; with JAK2 (TPO) (400 mg BID), 16%. For the same compound, the “Trough TPO inhibition” value in the test on JAK2 (TPO) (600 mg QD) was determined as 4%. The “% PASI 50” value in test [1] (100 mg BID (as headed)) worked out at 22.2%; in test [1] (200 mg BID), 44.4%; in test [1] (200 mg QD) it was 66.7%; in test [1] (600 mg QD), 81.8%. For the same compound, the “% sPGA (clear or minimal)” value is reported as 11.1% in test [1] (100 mg BID (as headed)), 33.3% in test [1] (200 mg BID), 22.2% in test [1] (200 mg QD) and 45.5% in test [1] (600 mg QD). The “Mean % change sPGA” value is given as −22.2% in test [1] (100 mg BID (as headed)), −35.2% in test [1] (200 mg BID), −29.4% in test [1] (200 mg QD) and −42.4% in test [1] (600 mg QD). In addition, the pIC50 in test [2] is at least 8.30.

Take `C[C@@H]1CCN(C(=O)CC#N)C[C@@H]1N(C)c1ncnc2[nH]ccc12.O=C(O)CC(O)(CC(=O)O)C(=O)O` [tofacitinib citrate]: in the test with RA, the ACR20 was 59%, the ACR50 was 31% and the ACR70 was 15%. Also, in the test on psoriasis, the “PASI 50 score” value is 65.3%.
